According to patent US12006321B2, “Substituted pyrazolo[1,5-a]pyrimidines as apelin receptor agonists” (Sanford Burnham Prebys Medical Discovery Institute, priority 2017, dated 2024):

The compounds below were run against T1, human apelin receptor (APJ, APLNR) (Homo sapiens, UniProt P35414) (assay: cell-based cAMP assay (TR-FRET) in Chinese hamster ovary cells expressing the apelin receptor). Conditions: EC50 = 50% of control (apelin-13, 1 nM) response; cAMP in CHO cells, 0.5 h incubation; read-out: Potency Category.
T1 construct: host or cells: Chinese hamster ovary (CHO) cells, stably integrated receptor
T1 sequence (P35414 1-380): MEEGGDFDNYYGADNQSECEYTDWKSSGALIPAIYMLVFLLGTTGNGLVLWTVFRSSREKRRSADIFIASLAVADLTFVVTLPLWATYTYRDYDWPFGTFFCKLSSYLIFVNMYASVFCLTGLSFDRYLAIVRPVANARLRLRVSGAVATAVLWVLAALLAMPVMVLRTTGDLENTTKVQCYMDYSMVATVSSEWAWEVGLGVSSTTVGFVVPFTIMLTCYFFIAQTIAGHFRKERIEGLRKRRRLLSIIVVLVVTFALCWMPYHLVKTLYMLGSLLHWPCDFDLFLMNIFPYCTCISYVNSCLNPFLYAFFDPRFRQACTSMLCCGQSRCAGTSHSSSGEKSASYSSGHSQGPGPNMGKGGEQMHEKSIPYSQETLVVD
Procedure, shortened: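 CHO cells stably expressing human APJ were forskolin-stimulated, then exposed to compound (0.0-100 μM, ≤1% DMSO) for 0.5 h. Lysate cAMP read by competitive TR-FRET immunoassay; EC50 and efficacy expressed relative to 1 nM apelin-13, four-parameter fit over ≥10 concentrations.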

| Structure (SMILES) | EC50 [nM] |
| --- | --- |
| Cc1cccc(Cl)c1-c1c(C)nn2c(C(C)C)cc(C(=O)O)nc12 [Compound 93, 3-(6-chloro-2-methylphenyl)-2-methyl-7-(methylethyl)-8-hydropyrazolo[1,5-a]pyrimidine-5-carboxylic acid] | 200 to 500 |
| CCOC(=O)c1cc(C(C)C)n2nc(C)c(-c3c(C)cccc3Cl)c2n1 [Compound 94, ethyl 3-(6-chloro-2-methylphenyl)-2-methyl-7-(methylethyl)-8-hydropyrazolo[1,5-a]pyrimidine-5-carboxylate] | > 500 |
| COC(=O)c1cc(C(C)C)n2nc(C(=O)OC)c(-c3c(C)cccc3C)c2n1 [Compound 95, methyl 3-(2,6-dimethylphenyl)-2-(methoxycarbonyl)-7-(methylethyl)-8-hydropyrazolo[1,5-a]pyrimidine-5-carboxylate] | > 500 |
| Cc1cccc(C)c1-c1c(C(=O)O)nn2c(C(C)C)cc(C(=O)O)nc12 [Compound 96, 3-(2,6-dimethylphenyl)-7-(methylethyl)-8-hydropyrazolo[1,5-a]pyrimidine-2,5-dicarboxylic acid] | > 500 |
| CCOC(=O)c1cc(N2CCOCC2)n2nc(C)c(-c3c(C)cccc3C)c2n1 [Compound 97, ethyl 3-(2,6-dimethylphenyl)-2-methyl-7-morpholin-4-yl-8-hydropyrazolo[1,5-a]pyrimidine-5-carboxylate] | > 500 |
| Cc1cccc(C)c1-c1c(C)nn2c(N3CCOCC3)cc(C(=O)O)nc12 [Compound 98, 3-(2,6-dimethylphenyl)-2-methyl-7-morpholin-4-yl-8-hydropyrazolo[1,5-a]pyrimidine-5-carboxylic acid] | > 500 |
| COc1cc(C(=O)O)nc2c(-c3c(C)cccc3C)c(C)nn12 [Compound 99, 3-(2,6-dimethylphenyl)-7-methoxy-2-methyl-8-hydropyrazolo[1,5-a]pyrimidine-5-carboxylic acid] | > 500 |
| CCOC(=O)c1cc(C(C)C)n2nc(C(=O)N(C)C)c(-c3c(C)cccc3C)c2n1 [Compound 100, ethyl 2-(N,N-dimethylcarbamoyl)-3-(2,6-dimethylphenyl)-7-(methylethyl)-8-hydropyrazolo[1,5-a]pyrimidine-5-carboxylate] | > 500 |
| Cc1cccc(C)c1-c1c(C(=O)N(C)C)nn2c(C(C)C)cc(C(=O)O)nc12 [Compound 101, 2-(N,N-dimethylcarbamoyl)-3-(2,6-dimethylphenyl)-7-(methylethyl)-8-hydropyrazolo[1,5-a]pyrimidine-5-carboxylic acid] | > 500 |
| CNc1cc(C(=O)O)nc2c(-c3c(C)cccc3C)c(C)nn12 [Compound 102, 3-(2,6-dimethylphenyl)-2-methyl-7-(methylamino)-8-hydropyrazolo[1,5-a]pyrimidine-5-carboxylic acid] | > 500 |
| Cc1cccc(C)c1-c1c(C)nn2c(N(C)C)cc(C(=O)O)nc12 [Compound 103, 7-(dimethylamino)-3-(2,6-dimethylphenyl)-2-methyl-8-hydropyrazolo[1,5-a]pyrimidine-5-carboxylic acid] | > 500 |
| Cc1nn2c(C(C)C)cc(C(=O)O)nc2c1-c1c(F)cccc1F [Compound 104, 3-(2,6-difluorophenyl)-2-methyl-7-(methylethyl)-8-hydropyrazolo[1,5-a]pyrimidine-5-carboxylic acid] | > 500 |
| CCOC(=O)c1cc(C(C)C)n2nc(C)c(-c3c(F)cccc3F)c2n1 [Compound 105, ethyl 3-(2,6-difluorophenyl)-2-methyl-7-(methylethyl)-8-hydropyrazolo[1,5-a]pyrimidine-5-carboxylate] | > 500 |
| Cc1cccc(C)c1-c1c(C)nn2c(N3CCN(C)CC3)cc(C(=O)O)nc12 [Compound 106, 3-(2,6-dimethylphenyl)-2-methyl-7-(4-methylpiperazinyl)-8-hydropyrazolo[1,5-a]pyrimidine-5-carboxylic acid] | > 500 |
| Cc1cccc(C)c1-c1c(C)nn2c(Oc3ccccc3)cc(C(=O)O)nc12 [Compound 107, 3-(2,6-dimethylphenyl)-2-methyl-7-phenoxy-8-hydropyrazolo[1,5-a]pyrimidine-5-carboxylic acid] | > 500 |
| CCOC(=O)c1cc(N2CCN(C)CC2)n2nc(C)c(-c3c(C)cccc3C)c2n1 [Compound 108, ethyl 3-(2,6-dimethylphenyl)-2-methyl-7-(4-methylpiperazinyl)-8-hydropyrazolo[1,5-a]pyrimidine-5-carboxylate] | > 500 |
| CCOC(=O)c1cc(Oc2ccccc2)n2nc(C)c(-c3c(C)cccc3C)c2n1 [Compound 109, ethyl 3-(2,6-dimethylphenyl)-2-methyl-7-phenoxy-8-hydropyrazolo[1,5-a]pyrimidine-5-carboxylate] | > 500 |
| Cc1cccc(C)c1-c1c(C)nn2c(C(C)C)cc(N)nc12 [Compound 110, 3-(2,6-dimethylphenyl)-2-methyl-7-(methylethyl)-8-hydropyrazolo[1,5-a]pyrimidine-5-ylamine] | > 500 |
| CC(=O)Nc1cc(C(C)C)n2nc(C)c(-c3c(C)cccc3C)c2n1 [Compound 111, N-[3-(2,6-dimethylphenyl)-2-methyl-7-(methylethyl)-8-hydropyrazolo[1,5-a]pyrimidin-5-yl]acetamide] | > 500 |
| CCOC(=O)c1cc(C(C)C)n2nc(C)c(-c3c(F)cccc3Cl)c2n1 [Compound 112, ethyl 3-(2-chloro-6-fluorophenyl)-2-methyl-7-(methylethyl)-8-hydropyrazolo[1,5-a]pyrimidine-5-carboxylate] | > 500 |

Other lines, results leading:

| EC50 [nM] | Structure (SMILES) |
| --- | --- |
| > 500 | Cc1nn2c(C(C)C)cc(C(=O)O)nc2c1-c1c(F)cccc1Cl [Compound 113, 3-(2-chloro-6-fluorophenyl)-2-methyl-7-(methylethyl)-8-hydropyrazolo[1,5-a]pyrimidine-5-carboxylic acid] |
| > 500 | CCOC(=O)c1cc(C(C)C)n2nc(C)c(-c3c(Cl)cccc3Cl)c2n1 [Compound 114, ethyl 3-(2,6-dichlorophenyl)-2-methyl-7-(methylethyl)-8-hydropyrazolo[1,5-a]pyrimidine-5-carboxylate] |
| > 500 | Cc1nn2c(C(C)C)cc(C(=O)O)nc2c1-c1c(Cl)cccc1Cl [Compound 115, 3-(2,6-dichlorophenyl)-2-methyl-7-(methylethyl)-8-hydropyrazolo[1,5-a]pyrimidine-5-carboxylic acid] |
| 200 to 500 | CCc1cccc(CC)c1-c1c(C)nn2c(C(C)C)cc(C(=O)O)nc12 [Compound 116] |
| > 500 | CCOC(=O)c1cc(Nc2ccccc2)n2nc(C)c(-c3c(C)cccc3C)c2n1 [Compound 117, ethyl 3-(2,6-dimethylphenyl)-2-methyl-7-(phenylamino)-8-hydropyrazolo[1,5-a]pyrimidine-5-carboxylate] |
| > 500 | Cc1cccc(C)c1-c1c(C)nn2c(Nc3ccccc3)cc(C(=O)O)nc12 [Compound 118, 3-(2,6-dimethylphenyl)-2-methyl-7-(phenylamino)-8-hydropyrazolo[1,5-a]pyrimidine-5-carboxylic acid] |
| > 500 | COc1cccc(Cl)c1-c1c(C)nn2c(C(C)C)cc(C(=O)O)nc12 [Compound 119, 3-(6-chloro-2-methoxyphenyl)-2-methyl-7-(methylethyl)-8-hydropyrazolo[1,5-a]pyrimidine-5-carboxylic acid] |
| > 500 | Cc1nn2c(C(C)C)cc(C(=O)O)nc2c1-c1c(F)cccc1C#N [Compound 120, 3-(2-cyano-6-fluorophenyl)-2-methyl-7-(methylethyl)-8-hydropyrazolo[1,5-a]pyrimidine-5-carboxylic acid] |
| > 500 | CCc1cccc(C)c1-c1c(C)nn2c(C(C)C)cc(C(=O)O)nc12 [Compound 121, 3-(6-ethyl-2-methylphenyl)-2-methyl-7-(methylethyl)-8-hydropyrazolo[1,5-a]pyrimidine-5-carboxylic acid] |
| > 500 | COC(=O)c1cc(N2CCCC2)n2nc(C)c(-c3c(C)cccc3C)c2n1 [Compound 122, methyl 3-(2,6-dimethylphenyl)-2-methyl-7-pyrrolidinyl-8-hydropyrazolo[1,5-a]pyrimidine-5-carboxylate] |
| > 500 | Cc1cccc(C)c1-c1c(C)nn2c(N3CCCC3)cc(C(=O)O)nc12 [Compound 123, 3-(2,6-dimethylphenyl)-2-methyl-7-pyrrolidinyl-8-hydropyrazolo[1,5-a]pyrimidine-5-carboxylic acid] |
| > 500 | COC(=O)c1cc(N2CCCCC2)n2nc(C)c(-c3c(C)cccc3C)c2n1 [Compound 124, methyl 3-(2,6-dimethylphenyl)-2-methyl-7-piperidyl-8-hydropyrazolo[1,5-a]pyrimidine-5-carboxylate] |
| > 500 | Cc1cccc(C)c1-c1c(C)nn2c(N3CCCCC3)cc(C(=O)O)nc12 [Compound 125, 3-(2,6-dimethylphenyl)-2-methyl-7-piperidyl-8-hydropyrazolo[1,5-a]pyrimidine-5-carboxylic acid] |
| > 500 | Cc1cccc(C)c1-c1c(C)nn2c(-c3ccncc3)cc(C(=O)O)nc12 [Compound 126, 3-(2,6-dimethylphenyl)-2-methyl-7-(4-pyridyl)-8-hydropyrazolo[1,5-a]pyrimidine-5-carboxylic acid] |
| > 500 | Cc1cccc(C)c1-c1c(C)nn2c(C3=CCCC3)cc(C(=O)O)nc12 [Compound 127, 3-(2,6-dimethylphenyl)-7-cyclopent-1-enyl-2-methyl-8-hydropyrazolo[1,5-a]pyrimidine-5-carboxylic acid] |
